Experimental data reported in US20240122182A1, “PESTICIDALLY ACTIVE HETEROCYCLIC DERIVATIVES WITH SULFUR CONTAINING SUBSTITUENTS” (SYNGENTA CROP PROTECTION AG, priority 2021, published 2024).

Key:
Assay type in all cases: in vivo
[1] = system: Diabrotica Balteata (Corn Root Worm); experiment: Activity against Diabrotica balteata (corn root worm), maize sprouts sprayed; conditions: 96 h, application rate of 200 ppm, L2 larvae, 4 days after infestation, read-out: effect in at least one of the two categories (mortality or growth inhibition)
Description: Maize sprouts placed onto an agar layer in 24-well microtiter plates were treated with aqueous test solutions prepared from 10′000 ppm DMSO stock solutions by spraying. After drying, the plates were infested with L2 larvae (6 to 10 per well). The samples were assessed for mortality and growth inhibition in comparison to untreated samples 4 days after infestation.

[2] = system: Carpocapsa (Cydia) Pomonella (Codling Moth); experiment: Activity against Carpocapsa (Cydia) pomonella (codling moth), larvicide, feeding/contact; conditions: 336 h, application rate of 12.5 ppm, L1 larvae, 14 days after infestation, read-out: effect in at least one of the two categories (mortality or growth inhibition)
Description: Diet cubes coated with paraffin were sprayed with diluted test solutions in an application chamber. After drying off the treated cubes (10 replicates) were infested with 1 L1 larvae. Samples were incubated at 26-27° C. and checked 14 days after infestation for mortality and growth inhibition. The following compounds gave an effect of at least 80% in at least one of the two categories (mortality or growth inhibition) at an application rate of 12.5 ppm: P1, P2, P3, P5, P9, P10, P11, P12, P14, P17, P19, P20, P21, P23, P24, P30, P31.

[3] = system: Spodoptera littoralis (Egyptian Cotton Leaf Worm); experiment: Activity against Spodoptera littoralis (Egyptian cotton leaf worm), cotton leaf discs sprayed; conditions: foliar, 72 h, application rate of 200 ppm, L1 larvae, 3 days after infestation, read-out: control (mortality, anti-feeding effect, growth inhibition)
Description: Cotton leaf discs were placed onto agar in 24-well microtiter plates and sprayed with aqueous test solutions prepared from 10′000 ppm DMSO stock solutions. After drying the leaf discs were infested with five L1 larvae. The samples were assessed for mortality, anti-feeding effect, and growth inhibition in comparison to untreated samples 3 days after infestation. Control of Spodoptera littoralis by a test sample is given when at least one of the categories mortality, anti-feedant effect, and growth inhibition is higher than the untreated sample.

[4] = system: Chilo suppressalis (Striped Rice Stemborer); experiment: Activity against Chilo suppressalis (striped rice stemborer), artificial diet; conditions: 144 h, application rate of 200 ppm, L2 larvae, 6 days after infestation, read-out: control (mortality, anti-feeding effect, growth inhibition)
Description: 24-well microtiter plates with artificial diet were treated with aqueous test solutions prepared from 10′000 ppm DMSO stock solutions by pipetting. After drying, the plates were infested with L2 larvae (6-8 per well). The samples were assessed for mortality, anti-feeding effect, and growth inhibition in comparison to untreated samples 6 days after infestation. Control of Chilo suppressalis by a test sample is given when at least one of the categories mortality, anti-feedant effect, and growth inhibition is higher than the untreated sample.

[5] = system: Euschistus heros (Neotropical Brown Stink Bug); experiment: Activity against Euschistus heros (neotropical brown stink bug), soybean leaves sprayed; conditions: 120 h, application rate of 200 ppm, N2 nymphs, 5 days after infestation, read-out: effect in at least one of the two categories (mortality or growth inhibition)
Description: Soybean leaves on agar in 24-well microtiter plates were sprayed with aqueous test solutions prepared from 10′000 ppm DMSO stock solutions. After drying the leaves were infested with N2 nymphs. The samples were assessed for mortality and growth inhibition in comparison to untreated samples 5 days after infestation.

[6] = system: Plutella xylostella (Diamond Back Moth); experiment: Activity against Plutella xylostella (diamond back moth), artificial diet; conditions: 192 h, application rate of 200 ppm, eggs, 8 days after infestation, read-out: effect in at least one of the two categories (mortality or growth inhibition)
Description: 24-well microtiter plates with artificial diet were treated with aqueous test solutions prepared from 10′000 ppm DMSO stock solutions by pipetting. After drying, Plutella eggs were pipetted through a plastic stencil onto a gel blotting paper and the plate was closed with it. The samples were assessed for mortality and growth inhibition in comparison to untreated samples 8 days after infestation.

[7] = system: Myzus persicae (Green Peach Aphid); experiment: Activity against Myzus persicae (green peach aphid), feeding/contact activity; conditions: 144 h, application rate of 200 ppm, mixed ages, 6 days after infestation
Description: Sunflower leaf discs were placed onto agar in a 24-well microtiter plate and sprayed with aqueous test solutions prepared from 10′000 ppm DMSO stock solutions. After drying, the leaf discs were infested with an aphid population of mixed ages. The samples were assessed for mortality 6 days after infestation.

[8] = system: Nilaparvata lugens (Brown Plant Hopper); experiment: Activity against Nilaparvata lugens (brown plant hopper), larvicide, systemic into water; conditions: 168 h, application rate of 12.5 ppm, N3 nymphs, 7 days after infestation
Description: Larvicide, systemic into water Rice plants cultivated in a nutritive solution were treated with the diluted test solutions into nourishing cultivation system. 1 day after application plants were infested with ˜20 N3 nymphs. 7 days after infestation samples were assessed for mortality and growth regulation.

CCS(=O)(=O)c1cc(-n2ccc(Cl)n2)cnc1-c1cc2c(cn1)N(CC(F)(F)C(F)(F)F)C(=O)CC2 [P5, 6-[5-(3-chloropyrazol-1-yl)-3-ethylsulfonyl-2-pyridyl]-1-(2,2,3,3,3-pentafluoropropyl)-3,4-dihydro-1,7-naphthyridin-2-one]
≥ 80%: percent effect (mortality or growth inhibition) at 200 ppm [1] | percent effect (mortality or growth inhibition) at 12.5 ppm [2] | mortality at 200 ppm [3] | mortality at 200 ppm [4] | percent effect (mortality or growth inhibition) at 200 ppm [5] | percent effect (mortality or growth inhibition) at 200 ppm [6]

CCSc1cc(C2(C#N)CC2)cnc1-c1cc2c(cn1)N(CC(F)(F)F)C(=O)CC2 [P6, 1-[5-ethylsulfanyl-6-[2-oxo-1-(2,2,2-trifluoroethyl)-3,4-dihydro-1,7-naphthyridin-6-yl]-3-pyridyl]cyclopropanecarbonitrile]
≥ 80%: percent effect (mortality or growth inhibition) at 200 ppm [1] | mortality at 200 ppm [3] | mortality at 200 ppm [4] | percent effect (mortality or growth inhibition) at 200 ppm [5] | percent effect (mortality or growth inhibition) at 200 ppm [6]

CCSc1cc(N(C)C(C)=O)cnc1-c1cc2c(cn1)N(CC(F)(F)C(F)(F)F)C(=O)CC2 [P7, N-[5-ethylsulfanyl-6-[2-oxo-1-(2,2,3,3,3-pentafluoropropyl)-3,4-dihydro-1,7-naphthyridin-6-yl]-3-pyridyl]-N-methyl-acetamide]
≥ 80%: mortality at 200 ppm [7]

CCS(=O)(=O)c1ccc(-n2cncn2)nc1-c1cc2c(cn1)N(CC(F)(F)C(F)(F)F)C(=O)CC2 [P13, 6-[3-ethylsulfonyl-6-(1,2,4-triazol-1-yl)-2-pyridyl]-1-(2,2,3,3,3-pentafluoropropyl)-3,4-dihydro-1,7-naphthyridin-2-one]
≥ 80%: mortality at 200 ppm [7] | percent effect (mortality or growth inhibition) at 200 ppm [1] | mortality at 200 ppm [3] | mortality at 200 ppm [4] | percent effect (mortality or growth inhibition) at 200 ppm [6]

CCS(=O)(=O)c1ccc(-n2cncn2)nc1-c1cc2c(cn1)N(CC(F)(F)C(F)(F)F)C(=O)OC2 [P16, 6-[3-ethylsulfonyl-6-(1,2,4-triazol-1-yl)-2-pyridyl]-1-(2,2,3,3,3-pentafluoropropyl)-4H-pyrido[3,4-d][1,3]oxazin-2-one]
≥ 80%: mortality at 200 ppm [7] | percent effect (mortality or growth inhibition) at 200 ppm [1] | mortality at 200 ppm [3] | mortality at 200 ppm [4] | percent effect (mortality or growth inhibition) at 200 ppm [6]

CCS(=O)(=O)c1cc(C2CC2)cnc1-c1cc2c(cn1)N(CC(F)(F)C(F)(F)F)C(=O)CC2 [P19, 6-(5-cyclopropyl-3-ethylsulfonyl-2-pyridyl)-1-(2,2,3,3,3-pentafluoropropyl)-3,4-dihydro-1,7-naphthyridin-2-one]
≥ 80%: percent effect (mortality or growth inhibition) at 200 ppm [1] | percent effect (mortality or growth inhibition) at 12.5 ppm [2] | mortality at 200 ppm [3] | mortality at 200 ppm [4] | percent effect (mortality or growth inhibition) at 200 ppm [6] | mortality at 12.5 ppm [8]

CCS(=O)(=O)c1cc(Oc2ccccn2)cnc1-c1cc2c(cn1)N(CC(F)(F)C(F)(F)F)C(=O)CC2 [P21, 6-[3-ethylsulfonyl-5-(2-pyridyloxy)-2-pyridyl]-1-(2,2,3,3,3-pentafluoropropyl)-3,4-dihydro-1,7-naphthyridin-2-one]
≥ 80%: percent effect (mortality or growth inhibition) at 200 ppm [1] | percent effect (mortality or growth inhibition) at 12.5 ppm [2] | mortality at 200 ppm [3] | mortality at 200 ppm [4] | percent effect (mortality or growth inhibition) at 200 ppm [5] | percent effect (mortality or growth inhibition) at 200 ppm [6]

CCSc1cc(OCC(C)(F)F)cnc1-c1cc2c(cn1)N(CC(F)(F)C(F)(F)F)C(=O)CC2 [P25, 6-[5-(2,2-difluoropropoxy)-3-ethylsulfanyl-2-pyridyl]-1-(2,2,3,3,3-pentafluoropropyl)-3,4-dihydro-1,7-naphthyridin-2-one]
≥ 80%: percent effect (mortality or growth inhibition) at 200 ppm [1] | mortality at 200 ppm [3] | mortality at 200 ppm [4] | percent effect (mortality or growth inhibition) at 200 ppm [6]

CCSc1cc(C(F)(F)F)cnc1-c1cc2c(cn1)N(CC(F)(F)C(F)(F)F)C(=O)OC2 [P26, 6-[3-ethylsulfanyl-5-(trifluoromethyl)-2-pyridyl]-1-(2,2,3,3,3-pentafluoropropyl)-4H-pyrido[3,4-d][1,3]oxazin-2-one]
≥ 80%: percent effect (mortality or growth inhibition) at 200 ppm [1] | mortality at 200 ppm [4] | percent effect (mortality or growth inhibition) at 200 ppm [6]

CCSc1cc(OCC(C)(F)F)cnc1-c1cc2c(cn1)N(CC(F)(F)C(F)(F)F)C(=O)OC2 [P27, 6-[5-(2,2-difluoropropoxy)-3-ethylsulfanyl-2-pyridyl]-1-(2,2,3,3,3-pentafluoropropyl)-4H-pyrido[3,4-d][1,3]oxazin-2-one]
≥ 80%: percent effect (mortality or growth inhibition) at 200 ppm [1] | mortality at 200 ppm [3] | mortality at 200 ppm [4] | percent effect (mortality or growth inhibition) at 200 ppm [5] | percent effect (mortality or growth inhibition) at 200 ppm [6]

CCSc1cc(NC)cnc1-c1cc2c(cn1)N(CC(F)(F)C(F)(F)F)C(=O)OC2 [P28, 6-[3-ethylsulfanyl-5-(methylamino)-2-pyridyl]-1-(2,2,3,3,3-pentafluoropropyl)-4H-pyrido[3,4-d][1,3]oxazin-2-one]
≥ 80%: percent effect (mortality or growth inhibition) at 200 ppm [6]

CCSc1cc(N(C)C(C)=O)cnc1-c1cc2c(cn1)N(CC(F)(F)C(F)(F)F)C(=O)OC2 [P29, N-[5-ethylsulfanyl-6-[2-oxo-1-(2,2,3,3,3-pentafluoropropyl)-4H-pyrido[3,4-d][1,3]oxazin-6-yl]-3-pyridyl]-N-methyl-acetamide]
≥ 80%: mortality at 200 ppm [7] | mortality at 200 ppm [3] | mortality at 200 ppm [4] | percent effect (mortality or growth inhibition) at 200 ppm [6]

CCS(=O)(=O)c1cc(C(C)(C)F)cnc1-c1cc2c(cn1)N(CC(F)(F)C(F)(F)F)C(=O)OC2 [P30, 6-[3-ethylsulfonyl-5-(1-fluoro-1-methyl-ethyl)-2-pyridyl]-1-(2,2,3,3,3-pentafluoropropyl)-4H-pyrido[3,4-d][1,3]oxazin-2-one]
≥ 80%: percent effect (mortality or growth inhibition) at 200 ppm [1] | percent effect (mortality or growth inhibition) at 12.5 ppm [2] | mortality at 200 ppm [3] | mortality at 200 ppm [4] | percent effect (mortality or growth inhibition) at 200 ppm [6] | mortality at 12.5 ppm [8]

CC[S+]([O-])c1cc(OCC(C)(F)F)cnc1-c1cc2c(cn1)N(CC(F)(F)C(F)(F)F)C(=O)OC2 (centres unmarked) [P32, 6-[5-(2,2-difluoropropoxy)-3-ethylsulfinyl-2-pyridyl]-1-(2,2,3,3,3-pentafluoropropyl)-4H-pyrido[3,4-d][1,3]oxazin-2-one]
≥ 80%: percent effect (mortality or growth inhibition) at 200 ppm [1] | mortality at 200 ppm [3] | percent effect (mortality or growth inhibition) at 200 ppm [6]

CCSc1cc(C(C)(C)C#N)cnc1-c1cc2c(cn1)N(CC(F)(F)C(F)(F)F)C(=O)OC2 [P33, 2-[5-ethylsulfanyl-6-[2-oxo-1-(2,2,3,3,3-pentafluoropropyl)-4H-pyrido[3,4-d][1,3]oxazin-6-yl]-3-pyridyl]-2-methyl-propanenitrile]
≥ 80%: percent effect (mortality or growth inhibition) at 200 ppm [1] | mortality at 200 ppm [4] | percent effect (mortality or growth inhibition) at 200 ppm [5]

CCSc1cc(C2(C#N)CC2)cnc1-c1cc2c(cn1)N(CC(F)(F)F)C(=O)OC2 [P35, 1-[5-ethylsulfanyl-6-[2-oxo-1-(2,2,2-trifluoroethyl)-4H-pyrido[3,4-d][1,3]oxazin-6-yl]-3-pyridyl]cyclopropanecarbonitrile]
≥ 80%: percent effect (mortality or growth inhibition) at 200 ppm [1] | percent effect (mortality or growth inhibition) at 200 ppm [6]
